The subject of assay [1] is bone metastasis from rat breast cancer cell line MRMT-1. Put plainly: Autoradiography in rat model of osteolytic bone metastasis from breast cancer. It is filed as in vivo. The following applies: limb transplanted with MRMT-1 (right hind limb), day 12 to 14 after transplantation; tail vein; sacrifice after 30 minutes (^99mTc-HMDP 2 hours). The protocol:
A rat breast cancer cell line MRMT-1 was obtained from RIKEN BioResource Center. MRMT-1 was subcultured using a medium RPMI1640 (manufactured by Life Technologies Japan Ltd.) with 10% fetal bovine serum (American Type Culture Collection), 100 U/mL penicillin (manufactured by Life Technologies Japan Ltd.), and 0.1 mg/mL streptomycin (manufactured by Life Technologies Japan Ltd). On the day of transplantation, the medium in a culture vessel was removed and Trypsin-EDTA solution (manufactured by Life Technologies Japan Ltd.) maintained at 37° C. was added to the culture vessel, which was left to stand at 37° C. for about 5 minutes. After MRMT-1 was detached from the surface of the culture vessel, the above-mentioned medium was added to the culture vessel in an amount equal to that of Trypsin-EDTA solution. MRMT-1 was precipitated by centrifugation (800 rpm, 5 min) and its supernatant was removed, and a cell suspension in which MRMT-1 was suspended in Hank's buffer (manufactured by Life Technologies Japan Ltd.) at a concentration of 2.5×10^5 cells/mL was then produced.
An anti-inflammatory analgesic, Metacam 0.5% Solution for Injection (manufactured by Boehringer Ingelheim Vetmedica Japan Co., Ltd.) was subcutaneously injected into the groin of the right hind limb of 9-week-old male SD rat (Japan SLC, Inc.) at a rate of 0.2 mg/kg under isoflurane (manufactured by Mylan) anesthesia, and the skin in the groin was then incised. Next, the saphenous artery, the saphenous vein and the nerve parallel thereto were removed from muscles and isolated, and a surgical suture (3-0) was passed under the saphenous artery in the portion distal to the popliteal artery bifurcation. In addition, tissues around the superficial epigastric artery bifurcation were removed and a surgical suture (3-0) was passed under the femoral artery between the superficial epigastric artery bifurcation and the popliteal artery bifurcation (the portion slightly distal to the superficial epigastric artery bifurcation). Subsequently, a few drops of Papaverine Hydrochloride Injection 40 mg (manufactured by Nichi-Iko Pharmaceutical Co., Ltd.) was added dropwise around the saphenous artery to relax vascular smooth muscle, and each end of the surgical suture passed under the saphenous artery and the femoral artery was picked up with forceps, and the saphenous artery and the femoral artery were lifted to compress the arteries. A cotton swab was put under the saphenous artery to retain the saphenous artery, and an injection needle was inserted from the distal portion of the saphenous artery in the central direction, and MRMT-1 suspension (0.1 mL) was slowly injected. […]

Assay [2] relates to bone metastasis from breast cancer cells (MRMT-1). The assay can be described thus: Triple tracer autoradiography in rat models of intertrabecular and osteolytic bone metastasis from breast cancer. It is filed as in vivo. The following applies: intertrabecular model day 6 and day 8, osteolytic model day 11 after transplantation; three tracers in an identical rat. On the procedure:
MRMT-1 suspension was prepared in the same way as the MRMT-1 suspension prepared in Example 1.
A model of intertrabecular bone metastasis was prepared in the same way as the rat model of osteolytic bone metastasis prepared in Example 1 except that a MRMT-1 suspension was injected into right and left saphenous arteries of the 12-week old male SD rat (Japan SLC, Inc.), which was used for the following experiment at day 6 or day 8 after the transplantation. The lesion appeared only in right hind limb of the model at day 6 after the transplantation and left limb of the model at day 8 after the transplantation.
A model of osteolytic bone metastasis was prepared in the same way as the rat model of osteolytic bone metastasis prepared in Example 1 except that the model was produced from 12-week old male SD rat (Japan SLC, Inc.), and used for the following experiment at day 11 after the transplantation. […]

In assay [3] the test system is bone metastasis from breast cancer. The following applies: human, in vivo; cited from earlier work.
For assay [4], the system named is bone metastasis from prostate cancer. The assay can be described thus: PET/CT imaging of patient with prostate cancer, compared with bone scintigraphy and whole body contrast enhanced CT. The following applies: untreated patient with prostate cancer; 263.1 MBq intravenously; whole body PET finished by 30 minutes.

In the case of `N[14C]1(C(=O)O)CC(F)C1` (stereo not drawn) [^14C-fluciclovine, trans-1-amino-3-fluorocyclobutane-1-[^14C]carboxylic acid], in assay [1], the “accumulation in bone metastasis in the osteolytic lesion area (autoradiogram, arrow A)” value was “accumulated” and the “accumulation in bone metastasis prior to the formation of osteolytic lesion, not detectable in X-ray image (autoradiogram, arrow B)” value is “also accumulated”. Moreover, the “accumulation in the early focal site of bone metastasis (autoradiogram)” value in assay [2] is “accumulated”.

With “technetium[^99mTc]hydroxymethylene diphosphonate [^99mTc-HMDP]”, in assay [3], the “combined sensitivity of all sites” value is reported as 78.2%, the “detection rate of osteoblastic bone metastasis” value is 100% and the “detection rate of osteolytic bone metastasis” value is on record as 70.0%. Also, in assay [1], the “accumulation in bone metastasis in the osteolytic lesion area (autoradiogram, arrow A)” value is listed as “observed in neither” and the “accumulation in bone metastasis prior to the formation of osteolytic lesion, not detectable in X-ray image (autoradiogram, arrow B)” value was “observed in neither”. For the same compound, the “accumulation in the early focal site of bone metastasis (autoradiogram)” value in assay [2] is “no accumulation”.

On to `N[C@]1(C(=O)O)C[C@@H](F)C1` [^18F-fluciclovine, trans-1-amino-[^18F]fluorocyclobutanecarboxylic acid], for which, in assay [4], the “visualization of lesions which were not visualized on bone scintigraphy and whole body contrast enhanced CT” value is given as “visualized”.

The record behind these values is patent US10857245B2, “Diagnostic imaging agent for early bone metastasis from cancer” (NIHON MEDI-PHYSICS CO., LTD., priority 2015, dated 2020).
